# Assay results from US10988477B2 (Merck Patent GmbH, priority 2018, dated 2021).
# Target: GCN2 kinase (Homo sapiens, UniProt Q9P2K8)
# Assay: GCN2 enzyme inhibition assay (Transcreener ADP2 fluorescence polarization)
# Type: biochemical
# Details: Enzyme activity for compounds of Formula IV; Ki(app), 280 μM ATP, 25° C.
# In short: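 ADP formation read by Transcreener FP after a 1 h, 25 °C kinase reaction containing 280 μM ATP, 200 μM (RS)7 substrate and 4 nM GCN2, pH 7.5 Tris buffer. Compounds (0–8 μM final) were added 10 min before ATP. Percent inhibition gave IC50 and apparent Ki via tight-binding fit.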
# GCN2 kinase, sequence (Q9P2K8 whole entry): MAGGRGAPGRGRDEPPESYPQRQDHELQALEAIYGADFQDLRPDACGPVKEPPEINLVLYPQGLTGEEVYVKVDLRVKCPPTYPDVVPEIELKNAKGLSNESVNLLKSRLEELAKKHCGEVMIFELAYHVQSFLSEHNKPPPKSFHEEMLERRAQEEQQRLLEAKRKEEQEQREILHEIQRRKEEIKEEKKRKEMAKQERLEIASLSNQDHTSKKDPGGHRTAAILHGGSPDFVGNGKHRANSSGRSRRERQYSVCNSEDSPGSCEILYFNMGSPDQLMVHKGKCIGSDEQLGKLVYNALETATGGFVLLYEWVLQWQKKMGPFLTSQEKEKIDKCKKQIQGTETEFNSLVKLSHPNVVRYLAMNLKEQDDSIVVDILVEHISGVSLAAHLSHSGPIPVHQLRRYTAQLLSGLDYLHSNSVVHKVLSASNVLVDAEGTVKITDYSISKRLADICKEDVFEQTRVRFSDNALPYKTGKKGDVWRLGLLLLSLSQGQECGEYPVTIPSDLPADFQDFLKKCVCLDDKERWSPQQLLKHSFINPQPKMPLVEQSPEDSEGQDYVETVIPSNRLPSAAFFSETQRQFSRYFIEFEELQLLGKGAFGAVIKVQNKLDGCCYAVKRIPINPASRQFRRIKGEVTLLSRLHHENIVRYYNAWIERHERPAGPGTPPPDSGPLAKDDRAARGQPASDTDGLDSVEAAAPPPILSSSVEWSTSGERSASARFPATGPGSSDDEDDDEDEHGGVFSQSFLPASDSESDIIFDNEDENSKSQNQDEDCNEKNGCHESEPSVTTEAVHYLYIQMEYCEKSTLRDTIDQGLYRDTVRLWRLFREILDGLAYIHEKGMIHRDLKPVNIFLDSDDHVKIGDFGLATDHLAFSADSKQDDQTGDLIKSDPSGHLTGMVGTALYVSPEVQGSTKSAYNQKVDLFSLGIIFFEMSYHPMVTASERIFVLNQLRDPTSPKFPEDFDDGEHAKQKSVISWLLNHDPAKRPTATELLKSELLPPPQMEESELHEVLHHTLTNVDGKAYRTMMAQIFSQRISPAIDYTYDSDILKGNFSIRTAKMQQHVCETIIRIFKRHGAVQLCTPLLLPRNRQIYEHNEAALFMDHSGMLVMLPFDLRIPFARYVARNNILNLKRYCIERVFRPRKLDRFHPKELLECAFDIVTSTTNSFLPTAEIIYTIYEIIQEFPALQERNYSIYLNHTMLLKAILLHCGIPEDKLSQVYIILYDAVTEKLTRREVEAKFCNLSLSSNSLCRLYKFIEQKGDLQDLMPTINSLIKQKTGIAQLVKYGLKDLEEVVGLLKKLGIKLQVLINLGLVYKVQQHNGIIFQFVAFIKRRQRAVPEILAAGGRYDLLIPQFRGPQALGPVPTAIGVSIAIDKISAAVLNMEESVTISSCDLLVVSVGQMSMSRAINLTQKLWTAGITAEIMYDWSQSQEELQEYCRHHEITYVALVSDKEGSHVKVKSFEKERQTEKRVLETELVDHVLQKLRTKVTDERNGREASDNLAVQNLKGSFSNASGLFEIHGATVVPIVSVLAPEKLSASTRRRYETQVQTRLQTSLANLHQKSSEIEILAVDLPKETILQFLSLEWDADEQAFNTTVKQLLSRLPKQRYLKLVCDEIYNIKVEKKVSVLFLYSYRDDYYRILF
row,Ki [nM],Structure (SMILES)
1,10 to 100,"CC1CCCN(c2cccc(-c3cnc4cnc(C(N)=O)cn34)n2)C1 (centres unmarked) [IV-205, 3-(6-(3-Methylpiperidin-1-yl)pyridin-2-yl)imidazo[1,2-a]pyrazine-6-carboxamide]"
2,> 1000,O=C(O)C1c2sccc2CCN1c1ccnc(-c2cnc3cnc(C(F)(F)F)cn23)n1 (centres unmarked) [IV-731]
3,100 to 1000,"N#CC1CCN(c2ccnc(-c3cnc4cnc(C(F)(F)F)cn34)n2)CC1 [IV-513, 1-(2-(6-(Trifluoromethyl)imidazo[1,2-a]pyrazin-3-yl)pyrimidin-4-yl)piperidine-4-carbonitrile]"
4,100 to 1000,"COc1cnc(N2CCN(C(C)=O)CC2)nc1-c1cnc2cnc(C(N)=O)cn12 [IV-701, 3-(2-(4-acetylpiperazin-1-yl)-5-methoxypyrimidin-4-yl)imidazo[1,2-a]pyrazine-6-carboxamide]"
5,100 to 1000,"CNS(=O)(=O)C1CCCN(c2ccnc(-c3cnc4cnc(C(N)=O)cn34)n2)C1 (centres unmarked) [IV-251, 3-(4-(3-(N-Methylsulfamoyl)piperidin-1-yl)pyrimidin-2-yl)imidazo[1,2-a]pyrazine-6-carboxamide]"
6,100 to 1000,"FC(F)c1cn2c(-c3nccc(-c4cccc(N5CCNCC5)n4)n3)cnc2cn1 [IV-149, 6-(Difluoromethyl)-3-(4-(6-(piperazin-1-yl)pyridin-2-yl)pyrimidin-2-yl)imidazo[1,2-a]pyrazine]"
7,100 to 1000,"CC1CN(c2ccnc(-c3cnc4cnc(C(F)(F)F)cn34)n2)C(C)C(c2c[nH]c(C(F)(F)F)n2)N1 (single isomer, unassigned) [IV-674, 3-(4-(2,5-Dimethyl-3-(2-(trifluoromethyl)-1H-imidazol-4-yl)piperazin-1-yl)pyrimidin-2-yl)-6-(trifluoromethyl)imidazo[1,2-a]pyrazine]"
8,100 to 1000,"N#CC1CCCCN1c1ccnc(-c2cnc3cnc(C(N)=O)cn23)n1 (centres unmarked) [IV-258, 3-(4-(2-Cyanopiperidin-1-yl)pyrimidin-2-yl)imidazo[1,2-a]pyrazine-6-carboxamide]"
9,100 to 1000,"C[C@H]1NCCN(c2ccnc(-c3cnc4cnc(Br)cn34)n2)[C@H]1c1cn[nH]c1 (racemic) [IV-342, Cis-6-Bromo-3-(4-(3-methyl-2-(1H-pyrazol-4-yl)piperazin-1-yl)pyrimidin-2-yl)imidazo[1,2-a]pyrazine]"
10,100 to 1000,"C[C@@H]1CN(c2ccnc(-c3cnc4cnc(C(F)(F)F)cn34)n2)C[C@H](c2ccnn2C)N1 (racemic) [IV-667, Cis-3-(4-(3-Methyl-5-(1-methyl-1H-pyrazol-5-yl)piperazin-1-yl)pyrimidin-2-yl)-6-(trifluoromethyl)imidazo[1,2-a]pyrazine]"
11,100 to 1000,"FC(F)(F)c1cn2c(-c3nccc(N4CCN5CCOCC5C4)n3)cnc2cn1 (centres unmarked) [IV-504, 8-(2-(6-(Trifluoromethyl)imidazo[1,2-a]pyrazin-3-yl)pyrimidin-4-yl)octahydropyrazino[2,1-a][1,4]oxazine]"

# Same assay, conditions: compounds of Formula II; 280 μM ATP, 4 nM GCN2 kinase
row,Ki [nM],Structure (SMILES)
1,10 to 1000,"CC1CC(N=S(C)(=O)C2CC2)CN(c2cc(-c3cnc4ccc(C(F)F)nn34)ncn2)C1 (single isomer, unassigned) [II-646, Cyclopropyl((1-(6-(6-(difluoromethyl)imidazo[1,2-b]pyridazin-3-yl)pyrimidin-4-yl)-5-methylpiperidin-3-yl)imino)(methyl)-λ^6-sulfanone]"
2,10 to 1000,"CC1CC(N=S(C)(=O)C2CC2)CN(c2cc(-c3cnc4ccc(C(F)F)nn34)ncn2)C1 (single isomer, unassigned) [II-644, Cyclopropyl((1-(6-(6-(difluoromethyl)imidazo[1,2-b]pyridazin-3-yl)pyrimidin-4-yl)-5-methylpiperidin-3-yl)imino)(methyl)-λ^6-sulfanone]"
3,10 to 1000,"CC1CC(CS(C)(=O)=O)C(C)N(c2cc(-c3cnc4ccc(C(F)F)nn34)ncn2)C1 (single isomer, unassigned) [II-625, 6-(Difluoromethyl)-3-[6-[2,5-dimethyl-3-(methylsulfonylmethyl)-1-piperidyl]pyrimidin-4-yl]imidazo[1,2-b]pyridazine]"
